Data: patent US8895610B1, “Platinum (IV) compounds targeting zinc finger domains” (priority 2007, dated 2014)
Values joined by “and” are separate entries in the source; they are usually repeats but may differ in a detail not shown here. Equal values may be shown once.

Key:
[1] = system: FIV Petaluma; assay: p25 antigen evaluation of antiviral activity in MBM cells; type: cell-based, feline; conditions: for p25 Viral Antigen (OD), average / p25 Viral Antigen (OD), individual wells: 7 days post infection, K+ = 1.195, K− = 0.08
Method: Antiviral activity in MBM was determined by inoculating 200 Tissue Culture Infectious Doses 50% FIV Petaluma (Talbott, 1989) in 100 μL RPMI 1640 medium into quadruplicate wells of 96-well microplates containing 2×10^5 cells in 100 μL medium. The cultures were monitored by measuring FIV p25 capsid protein (Lombardi, 1994) release in the supernatants after 7 days of incubation at 37° C. in 5% CO2 (Table 12). Half the media (without drug) was replaced on days 2 and 6 after infection and initial drug exposure. […] Drugs are identified as: CPA-7 (#1); NAD (#2); cisplatin (#3) and FX101 (#4). […]. […] A minimum of 50% inhibition in vitro is required to offset viral infectivity and replication in vivo.

[2] = biological target: STAT3 (Homo sapiens, UniProt P40763); conditions: have been shown; cited from earlier work
Chain of STAT3 (P40763 whole entry, species assumed): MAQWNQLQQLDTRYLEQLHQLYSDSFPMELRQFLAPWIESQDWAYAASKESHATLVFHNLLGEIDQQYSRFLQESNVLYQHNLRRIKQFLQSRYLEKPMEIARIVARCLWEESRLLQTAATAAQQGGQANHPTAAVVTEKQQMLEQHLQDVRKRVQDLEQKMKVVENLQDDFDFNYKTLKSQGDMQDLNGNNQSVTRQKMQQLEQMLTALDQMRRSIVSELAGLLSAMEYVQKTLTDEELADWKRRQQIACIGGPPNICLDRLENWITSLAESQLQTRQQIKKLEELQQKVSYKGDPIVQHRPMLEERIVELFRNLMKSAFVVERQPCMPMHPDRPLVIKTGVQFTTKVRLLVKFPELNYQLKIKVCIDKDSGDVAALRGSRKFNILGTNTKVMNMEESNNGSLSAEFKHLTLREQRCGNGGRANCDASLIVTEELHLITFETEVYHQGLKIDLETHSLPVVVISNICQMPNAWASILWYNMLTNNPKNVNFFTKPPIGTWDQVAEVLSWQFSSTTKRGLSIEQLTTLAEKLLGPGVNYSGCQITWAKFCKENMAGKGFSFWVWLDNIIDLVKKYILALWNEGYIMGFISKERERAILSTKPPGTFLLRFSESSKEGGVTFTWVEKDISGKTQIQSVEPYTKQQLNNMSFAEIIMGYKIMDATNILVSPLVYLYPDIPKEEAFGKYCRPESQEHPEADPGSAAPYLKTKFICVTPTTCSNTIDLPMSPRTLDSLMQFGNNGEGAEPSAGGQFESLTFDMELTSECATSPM

**Q.** What does the source list for `[NH2][Pt]([NH2])([Cl])([Cl])([Cl])[N+](=O)[O-]` [Drug #1]?
**A.** inhibition (elimination of all measures of virus) by day 7 ([1]; 7 days, concentrations used 5 and 20 μM): < 30%; p25 Viral Antigen (OD), average ([1]; conc 5 μM): 1.0943 OD; p25 Viral Antigen (OD), individual wells ([1]; conc 5 μM): 1.093 OD and 1.122 OD and 1.068 OD; p25 Viral Antigen (OD), average ([1]; conc 20 μM): 0.8163 OD; p25 Viral Antigen (OD), individual wells ([1]; conc 20 μM): 0.788 OD and 0.825 OD and 0.836 OD; antiviral effectiveness (in words) ([1]; p25 release, MBM cells, 7 days): insignificantly effective; inhibition of STAT3 [2]: inhibit STAT3

**Q.** Which “p25 Viral Antigen (OD), average” value ([1]; conc 5 μM) does the source give for `N.N.[Cl][Pt][Cl]` [Drug #3, cisplatin] here?
**A.** 1.0157 OD

**Q.** What about the “p25 Viral Antigen (OD), individual wells” value ([1]; conc 5 μM) of the same compound?
**A.** 1.04 OD and 1.021 OD and 0.986 OD

**Q.** And the “p25 Viral Antigen (OD), average” value ([1]; conc 20 μM)?
**A.** 1.0133 OD

**Q.** And the “p25 Viral Antigen (OD), individual wells” value ([1]; conc 20 μM)?
**A.** 1.014 OD and 1.033 OD and 0.993 OD
